Assay results reported in article PMC3599939 (BMC Infectious Diseases, 2013).

Test system: influenza virus neuraminidase (NA)
Format: biochemical

Compound: CCOC(=O)C1=C[C@@H](OC(CC)CC)[C@H](NC(C)=O)[C@@H](N)C1 [Oseltamivir, oseltamivir]
- Phenotype (S/R): R and S
- sensitivity of viruses to Oseltamivir: sensitive
